Here are results for 26 molecules from patent US20230051589A1, “COMPOUNDS AND COMPOSITIONS FOR TREATING CONDITIONS ASSOCIATED WITH NLRP ACTIVITY” (Novartis AG, priority 2018, published 2023).

Molecules are shown by their SMILES. pIC50: −log10 of the molar value.

One assay has as its system IL-1β production in PMA-differentiated THP-1 cells. The assay is described as follows: IL-1β production in PMA-differentiated THP-1 cells stimulated with gramicidin (hTHP-1 assay, 2% fetal bovine serum; Procedures 1-3). It is filed as cell-based, human. As to conditions: Homo sapiens, THP-1, Table B3; hTHP-1 assay containing 2% fetal bovine serum, gramicidin stimulation, IL-1β readout; read-out: hTHP-1 IC50. An outline of the steps: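 PMA-primed THP-1 cells (20 ng/ml PMA, 16-18 h) in RPMI with 2% FBS were pre-incubated with compounds for 1 h, from 100 μM downward in 3-fold steps (0.37% DMSO final), then stimulated with 5 μM gramicidin for 2 h. IL-1β in the supernatant was quantified by HTRF.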
For the molecule `NS(=O)(=NC(=O)Nc1c2c(cc3c1CCC3)CCC2)c1ccc(-c2ccccc2)s1` (single isomer, unassigned) [Example 799, (R) or (S)-N′-((1,2,3,5,6,7-hexahydro-s-indacen-4-yl)carbamoyl)-5-phenylthiophene-2-sulfonimidamide], the negative logarithm of the IC50 (pIC50) was less than 4.52.

Staying with this assay, now noted: Table B3; hTHP-1 assay containing 2% fetal bovine serum, gramicidin stimulation, IL-1β readout; read-out: hTHP-1 IC50.
For `CNS(=O)(=O)c1cccc(S(N)(=O)=NC(=O)Nc2c3c(cc4c2CCC4)CCC3)c1` (single isomer, unassigned) [Example 791, (R) or (S)-3-(N′-((1,2,3,5,6,7-hexahydro-5-indacen-4-yl)carbamoyl)sulfamidimidoyl)-N-methylbenzenesulfonamide], the pIC50 is 6.00 to 6.70.

On to `CNS(=O)(=O)c1cccc(S(N)(=O)=NC(=O)Nc2c3c(cc4c2CCC4)CCC3)c1` (single isomer, unassigned) [Example 792, (S) or (R)-3-(N′-((1,2,3,5,6,7-hexahydro-s-indacen-4-yl)carbamoyl)sulfamidimidoyl)-N-methylbenzenesulfonamide], for which the pIC50 was 5.30 to 6.00.

In the case of `COCCOC[C@@](C)(O)c1ncc(S(N)(=O)=NC(=O)Nc2c3c(cc4c2CCC4)CCC3)s1` (single isomer, unassigned) [Example 793, (S) or (R)-N′-((1,2,3,5,6,7-hexahydro-s-indacen-4-yl)carbamoyl)-2-((R)-2-hydroxy-1-(2-methoxyethoxy)propan-2-yl)thiazole-5-sulfonimidamide], the pIC50 was 5.30 to 6.00.

In the case of `COCCOC[C@@](C)(O)c1ncc(S(N)(=O)=NC(=O)Nc2c3c(cc4c2CCC4)CCC3)s1` (single isomer, unassigned) [Example 794, (R) or (S)-N′-((1,2,3,5,6,7-hexahydro-s-indacen-4-yl)carbamoyl)-2-((R)-2-hydroxy-1-(2-methoxyethoxy)propan-2-yl)thiazole-5-sulfonimidamide], the pIC50 is 7.40 to 8.10.

`NS(=O)(=NC(=O)Nc1c2c(cc3c1CCC3)CCC2)c1sc(CNC2CCC2)cc1F` (single isomer, unassigned) [Example 795, (R) or (S)-5-((cyclobutylamino)methyl)-3-fluoro-N′-((1,2,3,5,6,7-hexahydro-s-indacen-4-yl)carbamoyl)thiophene-2-sulfonimidamide]: the negative logarithm of the IC50 (pIC50) was 6.00 to 6.70.

For `NS(=O)(=NC(=O)Nc1c2c(cc3c1CCC3)CCC2)c1sc(CNC2CCC2)cc1F` (single isomer, unassigned) [Example 796, (S) or (R)-5-((cyclobutylamino)methyl)-3-fluoro-N′-((1,2,3,5,6,7-hexahydro-s-indacen-4-yl)carbamoyl)thiophene-2-sulfonimidamide], the pIC50 was 4.52 to 5.30.

Consider `CN(Cc1ccc(S(N)(=O)=NC(=O)Nc2c3c(cc4c2CC4)CCC3)c(F)c1)C1CCC1` (single isomer, unassigned) [Example 797, (R) or (S)-4-((cyclobutyl(methyl)amino)methyl)-2-fluoro-N′-((2,4,5,6-tetrahydro-1H-cyclobuta[f]inden-3-yl)carbamoyl)benzenesulfonimidamide], for which the negative-log IC50 (pIC50) was 6.00 to 6.70.

As to `CN(Cc1ccc(S(N)(=O)=NC(=O)Nc2c3c(cc4c2CC4)CCC3)c(F)c1)C1CCC1` (single isomer, unassigned) [Example 798, (S) or (R)-4-((cyclobutyl(methyl)amino)methyl)-2-fluoro-N′-((2,4,5,6-tetrahydro-1H-cyclobuta[f]inden-3-yl)carbamoyl)benzenesulfonimidamide], the pIC50 was less than 4.52.

As for `NS(=O)(=NC(=O)Nc1c2c(cc3c1CCC3)CCC2)c1ccc(-c2ccccc2)s1` (single isomer, unassigned) [Example 800, (S) or (R)-N′-((1,2,3,5,6,7-hexahydro-s-indacen-4-yl)carbamoyl)-5-phenylthiophene-2-sulfonimidamide], the pIC50 was less than 4.52.

In the case of `CC(C)(O)c1sc(S(N)(=O)=NC(=O)Nc2c3c(cc4c2CCC4)CCC3)cc1-c1ccccc1` (single isomer, unassigned) [Example 801, (S) or (R)-N′-((1,2,3,5,6,7-hexahydro-s-indacen-4-yl)carbamoyl)-5-(2-hydroxypropan-2-yl)-4-phenylthiophene-2-sulfonimidamide], the pIC50 is 4.52 to 5.30.

`CC(C)(O)c1sc(S(N)(=O)=NC(=O)Nc2c3c(cc4c2CCC4)CCC3)cc1-c1ccccc1` (single isomer, unassigned) [Example 802, (R) or (S)-N′-((1,2,3,5,6,7-hexahydro-s-indacen-4-yl)carbamoyl)-5-(2-hydroxypropan-2-yl)-4-phenylthiophene-2-sulfonimidamide]: the pIC50 was 6.70 to 7.40.

Turning to `CN(C)Cc1ccc(S(N)(=O)=NC(=O)Nc2c3c(cc4c2CCC4)CCC3)s1` (single isomer, unassigned) [Example 803, (R) or (S)-5-((dimethylamino)methyl)-N′-((1,2,3,5,6,7-hexahydro-5-indacen-4-yl)carbamoyl)thiophene-2-sulfonimidamide], the pIC50 was 6.00 to 6.70.

As for `CN(C)Cc1ccc(S(N)(=O)=NC(=O)Nc2c3c(cc4c2CCC4)CCC3)s1` (single isomer, unassigned) [Example 804, (S) or (R)-5-((dimethvlamino)methyl)-N′-((1,2,3,5,6,7-hexahydro-s-indacen-4-yl)carbamoyl)thiophene-2-sulfonimidamide], the pIC50 is 4.52 to 5.30.

`CC(C)n1nc(S(N)(=O)=NC(=O)Nc2c3c(cc4c2C(=O)CC4)CCC3)cc1C(C)(C)O` (single isomer, unassigned) [Example 805, (R) or (S)-5-(2-hydroxypropan-2-yl)-1-isopropyl-N′-((3-oxo-1,2,3,5,6,7-hexahydro-s-indacen-4-yl)carbamoyl)-1H-pyrazole-3-sulfonimidamide]: the pIC50 is 6.00 to 6.70.

Take `CC(C)n1nc(S(N)(=O)=NC(=O)Nc2c3c(cc4c2C(=O)CC4)CCC3)cc1C(C)(C)O` (single isomer, unassigned) [Example 806, (S) or (R)-5-(2-hydroxypropan-2-yl)-1-isopropyl-N′-((3-oxo-1,2,3,5,6,7-hexahydro-5-indacen-4-yl)carbamoyl)-1H-pyrazole-3-sulfonimidamide]: the pIC50 is less than 4.52.

On to `CC(C)(O)c1nc(CO)c(S(N)(=O)=NC(=O)Nc2c3c(cc4c2C(=O)CC4)CCC3)s1` (single isomer, unassigned) [Example 807, (S) or (R)-4-(hydroxymethyl)-2-(2-hydroxypropan-2-yl)-N′-((3-oxo-1,2,3,5,6,7-hexahydro-s-indacen-4-yl)carbamoyl)thiazole-5-sulfonimidamide], for which the pIC50 was 4.52 to 5.30.

With `CC(C)(O)c1nc(CO)c(S(N)(=O)=NC(=O)Nc2c3c(cc4c2C(=O)CC4)CCC3)s1` (single isomer, unassigned) [Example 808, (R) or (S)-4-(hydroxymethyl)-2-(2-hydroxypropan-2-yl)-N′-((3-oxo-1,2,3,5,6,7-hexahydro-s-indacen-4-yl)carbamoyl)thiazole-5-sulfonimidamide], the negative-log IC50 (pIC50) is 5.30 to 6.00.

Turning to `CN(C)CC(C)(C)c1ccc(S(N)(=O)=NC(=O)Nc2c3c(cc4c2CCC4)CCC3)cc1` (single isomer, unassigned) [Example 809, (R) or (S)-4-(1-(dimethylamino)-2-methylpropan-2-yl)-N′-((1,2,3,5,6,7-hexahydro-s-indacen-4-yl)carbamoyl)benzenesulfonimidamide], the pIC50 was 6.00 to 6.70.

For `CN(C)CC(C)(C)c1ccc(S(N)(=O)=NC(=O)Nc2c3c(cc4c2CCC4)CCC3)cc1` (single isomer, unassigned) [Example 810, (S) or (R)-4-(1-(dimethylamino)-2-methylpropan-2-yl)-N′-((1,2,3,5,6,7-hcxahydro-s-indaccn-4-yl)carbamoyl)benzenesulfonimidamide], the pIC50 is 4.52 to 5.30.

As for `CC(C)c1cnc(S(N)(=O)=NC(=O)Nc2c3c(cc4c2CCC4)CCC3)c(F)c1` (single isomer, unassigned) [Example 811, (R) or (S)-3-fluoro-N′-((1,2,3,5,6,7-hexahydro-s-indacen-4-yl)carbamoyl)-5-isopropylpyridine-2-sulfonimidamide], the pIC50 was 6.00 to 6.70.

On to `CC(C)c1cnc(S(N)(=O)=NC(=O)Nc2c3c(cc4c2CCC4)CCC3)c(F)c1` (single isomer, unassigned) [Example 812, (S) or (R)-3-fluoro-N′-((1,2,3,5,6,7-hexahydro-s-indacen-4-yl)carbamoyl)-5-isopropylpyridine-2-sulfonimidamide], for which the pIC50 was 4.52 to 5.30.

In the case of `CCn1ccc(S(N)(=O)=NC(=O)Nc2c3c(cc4c2CCC4)CCC3)n1` (single isomer, unassigned) [Example 813, (R) or (S)-1-ethyl-N′-((1,2,3,5,6,7-hexahydro-s-indacen-4-yl)carbamoyl)-1H-pyrazole-3-sulfonimidamide], the negative logarithm of the IC50 (pIC50) was 6.70 to 7.40.

`CCn1ccc(S(N)(=O)=NC(=O)Nc2c3c(cc4c2CCC4)CCC3)n1` (single isomer, unassigned) [Example 814, (S) or (R)-1-ethyl-N′-((1,2,3,5,6,7-hexahydro-s-indacen-4-yl)carbamoyl)-1H-pyrazole-3-sulfonimidamide]: the pIC50 was 5.30 to 6.00.

For the molecule `C[C@](O)(CO)c1ncc(S(N)(=O)=NC(=O)Nc2c3c(cc4c2CC4)CCC3)s1` (single isomer, unassigned) [Example 815, (R) or (S)-2-((S)-1,2-dihydroxypropan-2-yl)-N′-((2,4,5,6-tetrahydro-1H-cyclobuta[f]inden-3-yl)carbamoyl)thiazole-5-sulfonimidamide], the pIC50 was 7.40 to 8.10.

Consider `C[C@](O)(CO)c1ncc(S(N)(=O)=NC(=O)Nc2c3c(cc4c2CC4)CCC3)s1` (single isomer, unassigned) [Example 816, (S) or (R)-2-((S)-1,2-dihydroxypropan-2-yl)-N′-((2,4,5,6-tetrahydro-1H-cyclobuta[f]inden-3-yl)carbamoyl)thiazole-5-sulfonimidamide], for which the pIC50 is 6.00 to 6.70.

By pIC50 is commonly meant the negative decadic logarithm of the IC50, by convention in mol/L.
